Experimental findings from patent US20250186409A1, “5-AMINOHEXAHYDRO-6,7,8-TRIHYDROXY-3H-OXAZOLO[3,4-A]PYRIDIN-3-ONE DERIVATIVES DERIVATIVES AS TLR4 MODULATORS FOR THE TREATMENT OF IMMUNE DISEASES” (CONSEJO SUPERIOR DE INVESTIGACIONES CIENTÍFICAS (CSIC), priority 2021, published 2025) are described below.

Entries after “also recorded” stand apart in the source; their conditions may differ.

In data set [1] the test system is glycosidases (human fibroblast lysates). The data set is described as follows: Stability of the glycosidic linkage to glycosidases on incubation with human fibroblast lysates. It is filed as in vitro ADME. The conditions noted are these: 4 h, 37° C., pH 4.5, compound solution 200 μM, gas chromatography. Here is the method: The stability of the glyosidic linkage in compounds 2, 4, 6, 8, 10, 12, 14, 16, 18, 20, 22, 25, 27, 29, 32 and 34 selected as representative examples, upon incubation with human fibroblast lysates for 4 h was checked. For such purpose, cells were scraped into ice-cold H2O (10^6 cells mL^−1) and lysed by sonication. Insoluble materials were removed by centrifugation at 15,000 rpm for 5 min and protein concentrations were determined with Protein Assay Rapid Kit (WAKO, Tokyo, Japan). 10 μL of the lysates in 0.1% Triton X-100 in distilled water were incubated at 37° C. with 20 μL of the compound solution (200 μM) in 0.1 M citrate buffer, pH 4.5. In control experiments, the activity of several lysosomas glycosidases was confirmed using fluorescent substrates. The substrates were 4-methylumbelliferone (4-MU)-conjugated β-D-glucopyranoside (for GCase), α-D-glucopyranoside (for α-glucosidase), α-D-galactopyranoside (for α-Galase) and β-D-galactopyranoside (for β-galactosidase). The liberated 4-methylumbelliferone was measured in the black-well plate with a Perkin Elmer Luminescence Spectrometer (excitation wavelength: 340 nm; emission: 460 nm). No traces of the free polysubstituted 2-oxa-3-oxoindolizidine, which would result from hydrolysis of the glycolipid mimetics, was detected by gas chromatography upon trimethylsilylation, confirming the stability of the compounds to the action of the glycosidases.

Data set [2] concerns Splenocytes. The experiment in a line: Suppression of LPS-induced inflammation (splenocytes in vitro). It counts as cell-based, mouse. The conditions noted are these: splenocytes treated concurrently with compound and LPS, FIG. 1. The procedure:
FIG. 1. […] Splenocytes were treated concurrently with the compounds of the invention and LPS to assess the suppressive function of compounds on LPS-induced inflammation, with several compounds showing prominent suppressive function.
(§1) The whole spleen was surgically removed from a mouse and mechanically dissociated into a single cell suspension of splenocytes, which were then cultured in the complete RPMI 1640 medium (cRPMI). Human peripheral blood mononuclear cells (PBMCs) from healthy volunteers were collected from whole blood through gradient-centrifugation with Histopaque-1077 (Sigma-Aldrich).
Splenocytes were treated concurrently with the compounds of the invention and LPS to assess the suppressive function of compounds on LPS-induced inflammation.

Data set [3] deals with B6 mice. The data set is described as follows: Suppression of LPS-induced inflammation in vivo. The conditions noted are these: injected twice in a half hour time after LPS-treatment, FIG. 3. Here is the method: FIG. 3. […] The in vivo capability of compound 29 in suppressing LPS-induced inflammation in B6 mice was assessed as indicated in the scheme.
To determine the anti-inflammatory function in vivo, we assessed the capability of compound 29 in suppressing LPS-induced inflammation in B6 mice.

In data set [4] the test system is Splenocytes. The data set is described as follows: Immune-stimulating function of compounds alone (splenocytes in vitro). It is filed as cell-based, mouse. The conditions noted are these: splenocytes treated with compound alone, FIG. 6. Here is the method:
FIG. 6. […] Splenocytes were treated with the compounds of the invention alone to assess the immune-stimulating function of the compounds.
as §1
Splenocytes were treated with the compounds of the invention alone to assess the immune-stimulating function of the compounds by measuring their ability to promote the secretions of IFN-γ and IL-4.

The test system of data set [5] is OVA-induced AHR mouse model. The experiment in a line: OVA-induced airway hyperreactivity (AHR) and airway inflammation mouse model. It is filed as in vivo. The note with it: for suppression of OVA-induced airway hyperreactivity (AHR): OVA-induced AHR mouse model, FIG. 7; for suppression of IL-4 mRNA level in lungs / suppression of IL-13 mRNA level in lungs: lung mRNA, FIG. 10. The procedure:
For ovalbumin (OVA) challenge, mice were sensitized intraperitoneally (i.p.) with 50 μg of OVA with 2% alhydrogel adjuvant (InvivoGen). Mice were challenged three times with 50 μg of OVA on day 7 post-sensitization, either daily or every other day. Mice were sacrificed the day after the last OVA challenge.
Mice were anesthetized with 100 mg per kg body weight pentobarbital (Sigma-Aldrich), tracheotomised and mechanically ventilated via the FinePointe RC system (Buxco Research Systems, Wilmington, NC). Lung function was assessed by measuring lung resistance and dynamic compliance in response to increasing doses of aerosolized methacholine (1.25-40 mg/mL, Sigma-Aldrich).
Upon exposure of the trachea, the lungs were lavaged twice with 1 mL of PBS supplemented with 2% fetal calf serum (FCS). BALF was pooled and BAL cells were pelleted by centrifugation and fixed onto cytospin slides. The slides were stained with Diff-Quik solution (Polysciences Inc) and BAL differential cell count was performed.
Using the Th2 OVA-induced AHR mouse model, we assessed the capability of selected compounds 14 and 29 in suppressing Th2 inflammation.

In data set [6] the test system is B6 mice. The data set is described as follows: Adjuvancy function of compounds in vivo (serum IFNγ and IL-4). The conditions noted are these: FIG. 11. The procedure:
FIG. 11. […] The adjuvancy capability of the selected compound 29 in vivo was assessed by measuring the serum level of IFNγ and IL-4 induced after injecting them into B6 mice.
Besides assessing the ability of the new compounds to suppress inflammation, we also looked into their function to act as adjuvants, i.e. their ability to promote desirable immunological trends in the development of vaccines. We measured the in vivo adjuvancy capability of selected compounds 29 in inducing IFNγ and IL-4 in B6 mice (FIG. 11).

Data set [7] concerns bone marrow-derived macrophages (BMDM). The experiment in a line: Suppression of LPS-induced inflammation (BMDM in vitro). It counts as cell-based. The note with it: FIG. 2; for suppression of IL-6 / suppression of TNFα: LPS-induced, BMDM; for suppression of IL-6: 50 μM; for suppression of TNFα: 10 and 50 μM. The text has this: Since macrophage is the major responder to LPS-induced inflammation, we assessed the capability of selected compounds to suppress LPS-induced inflammation in bone marrow-derived macrophages (BMDM).

In data set [8] the test system is ERK and p38 of the MAPK family, JNK and STAT3. The data set is described as follows: Signal transduction by multiplex bead array (phosphorylation versus LPS treatment alone). The conditions noted are these: compared to LPS treatment alone, 30 min post-treatment, FIG. 4. It counts as cell-based. The source says: FIG. 4. […] Compounds 4 and 14, the representative compounds of the invention, were examined in term of signal transduction to explore how the new compounds exert their suppressive effect, using the multiplex bead array.
Using the multiplex bead array, we examined how the new compounds might exert their suppressive effect in term of signal transduction.

Where [9] appears, read: bronchoalveolar lavage fluid, FIG. 8.

Turning to `CCCCCCCCNC(=[Se])N[C@@H]1C(O)[C@@H](O)[C@H](O)C2COC(=O)N21` (stereo partly shown) [Compound 25], in data set [1], the “free polysubstituted 2-oxa-3-oxoindolizidine from hydrolysis of the glycolipid mimetic (stability to glycosidases)” value is “No traces”.
On to `CCCCCCCCNS(=O)(=O)N[C@@H]1C(O)[C@@H](O)[C@H](O)C2COC(=O)N21` (stereo partly shown) [Compound 10], for which the “free polysubstituted 2-oxa-3-oxoindolizidine from hydrolysis of the glycolipid mimetic (stability to glycosidases)” value in data set [1] was “No traces”.
The same measure, in the same setting: the value for `CCCCCCCCCCCCNS(=O)(=O)N[C@@H]1C(O)[C@@H](O)[C@H](O)C2COC(=O)N21` (stereo partly shown) [Compound 12] was “No traces”.
Turning to `CCCCNS(=O)(=O)N[C@@H]1C(O)[C@@H](O)[C@H](O)C2COC(=O)N21` (stereo partly shown) [Compound 8], the “free polysubstituted 2-oxa-3-oxoindolizidine from hydrolysis of the glycolipid mimetic (stability to glycosidases)” value in data set [1] is “No traces”.
As to `CCCCCCCCCCCCCCCCOS(=O)(=O)N[C@@H]1C(O)[C@@H](O)[C@H](O)C2COC(=O)N21` (stereo partly shown) [Compound 20], in data set [1], the “free polysubstituted 2-oxa-3-oxoindolizidine from hydrolysis of the glycolipid mimetic (stability to glycosidases)” value was “No traces”.
For the compound `CCCCCCCCCCCCCCCCNC(=[Se])N[C@@H]1C(O)[C@@H](O)[C@H](O)C2COC(=O)N21` (stereo partly shown) [Compound 32], in data set [1], the “free polysubstituted 2-oxa-3-oxoindolizidine from hydrolysis of the glycolipid mimetic (stability to glycosidases)” value was “No traces”.
`CCCCCCCCCCCCNC(=S)N[C@@H]1C(O)[C@@H](O)[C@H](O)C2COC(=O)N21` (stereo partly shown) [Compound 27]: the “free polysubstituted 2-oxa-3-oxoindolizidine from hydrolysis of the glycolipid mimetic (stability to glycosidases)” value in data set [1] was “No traces”. Further, the “suppression of LPS-induced inflammation” value in data set [2] is on record as “prominent inflammation-suppressing function”.
As for `CCCCCCCCS(=O)(=O)N[C@@H]1C(O)[C@@H](O)[C@H](O)C2COC(=O)N21` (stereo partly shown) [Compound 22], the “free polysubstituted 2-oxa-3-oxoindolizidine from hydrolysis of the glycolipid mimetic (stability to glycosidases)” value in data set [1] is “No traces”.
For `CCCCCCCCCCCCNC(=[Se])N[C@@H]1C(O)[C@@H](O)[C@H](O)C2COC(=O)N21` (stereo partly shown) [Compound 29], the “free polysubstituted 2-oxa-3-oxoindolizidine from hydrolysis of the glycolipid mimetic (stability to glycosidases)” value in data set [1] is listed as “No traces”. In addition, in data set [2], the “suppression of LPS-induced inflammation” value was “prominent inflammation-suppressing function”. Also, the “suppression of LPS-induced serum TNFα” value in data set [3] was “significantly suppressed; also recorded: significantly suppressing”. In addition, in data set [4], the IFNγ secretion result is “effective in promoting; also recorded: induced significant IFNγ secretion” and the IL-4 secretion result is on record as “but not IL-4”. Moreover, in data set [5], the “suppression of OVA-induced airway hyperreactivity (AHR)” value was “suppress AHR significantly”, the “suppression of IL-4 mRNA level in lungs” value is on record as “significantly suppressed” and the “suppression of IL-13 mRNA level in lungs” value was “significantly suppress; also recorded: significantly suppressed”. Besides, in data set [5] (setting [9]), the “suppression of IL-4 level in BALF” value is “suppress both IL-13 and IL-4 levels significantly”; the “suppression of IL-13 level in BALF” value was “suppress both IL-13 and IL-4 levels significantly”. The “suppression of IL-13 protein level in lungs” value in data set [5] (lung protein, FIG. 9) is “significantly suppress; also recorded: significant suppression”. Besides, in data set [6] (2 hours after injection), the “induction of serum IFNγ” value was “significant capability” and the “induction of serum IL-4” value was “significant capability”. Further, the “serum IFNγ level” value in data set [6] (18 hours after injection) is recorded as “significant detectable level”.
Turning to `CCCCCCCCOP(=O)(N[C@@H]1C(O)[C@@H](O)[C@H](O)C2COC(=O)N21)OCCCCCCCC` (stereo partly shown) [Compound 4], the “free polysubstituted 2-oxa-3-oxoindolizidine from hydrolysis of the glycolipid mimetic (stability to glycosidases)” value in data set [1] was “No traces”. Moreover, the “suppression of LPS-induced inflammation” value in data set [2] is recorded as “prominent inflammation-suppressing function”. Further, in data set [7], the “suppression of LPS-induced inflammation in BMDM” value was “efficient in suppressing LPS-induced inflammation”, the “suppression of IL-6” value is given as “significant suppression” and the “suppression of TNFα” value is reported as “significant suppression”. For the same compound, in data set [8], the “phosphorylation of ERK” value was “significantly reduced”, the “phosphorylation of JNK” value is “but not JNK” and the “phosphorylation of p38” value was “significantly reduced”.
Consider `CCCCCCCCCCCCOC(=S)N[C@@H]1C(O)[C@@H](O)[C@H](O)C2COC(=O)N21` (stereo partly shown) [Compound 34], for which the “free polysubstituted 2-oxa-3-oxoindolizidine from hydrolysis of the glycolipid mimetic (stability to glycosidases)” value in data set [1] is reported as “No traces”.
On to `CCCCCCCCCCCCCCCCNS(=O)(=O)N[C@@H]1C(O)[C@@H](O)[C@H](O)C2COC(=O)N21` (stereo partly shown) [Compound 14], for which the “free polysubstituted 2-oxa-3-oxoindolizidine from hydrolysis of the glycolipid mimetic (stability to glycosidases)” value in data set [1] is “No traces”. In addition, the “suppression of LPS-induced inflammation” value in data set [2] is “prominent inflammation-suppressing function”. In data set [7], the “suppression of LPS-induced inflammation in BMDM” value was “efficient in suppressing LPS-induced inflammation”, the “suppression of IL-6” value is reported as “significant suppression” and the “suppression of TNFα” value is recorded as “significant suppression”. For the same compound, in data set [8], the “phosphorylation of ERK” value is on record as “significantly reduced”, the “phosphorylation of JNK” value was “but not JNK”, the “phosphorylation of STAT3” value is reported as “significant reduction” and the “phosphorylation of p38” value is given as “significantly reduced”. Further, in data set [5], the “suppression of OVA-induced airway hyperreactivity (AHR)” value is listed as “can suppress AHR onset”, the “suppression of IL-4 mRNA level in lungs” value is “significantly suppressed” and the “suppression of IL-13 mRNA level in lungs” value is reported as “significantly suppressed”.
As to `CCCCCCCCOS(=O)(=O)N[C@@H]1C(O)[C@@H](O)[C@H](O)C2COC(=O)N21` (stereo partly shown) [Compound 16], the “free polysubstituted 2-oxa-3-oxoindolizidine from hydrolysis of the glycolipid mimetic (stability to glycosidases)” value in data set [1] was “No traces”.
As for `CCCCCCCCCCCCOP(=O)(N[C@@H]1C(O)[C@@H](O)[C@H](O)C2COC(=O)N21)OCCCCCCCCCCCC` (stereo partly shown) [Compound 6], the “free polysubstituted 2-oxa-3-oxoindolizidine from hydrolysis of the glycolipid mimetic (stability to glycosidases)” value in data set [1] is “No traces”. The “suppression of LPS-induced inflammation” value in data set [2] is reported as “prominent inflammation-suppressing function”.
With `CCCCCCCCCCCCOS(=O)(=O)N[C@@H]1C(O)[C@@H](O)[C@H](O)C2COC(=O)N21` (stereo partly shown) [Compound 18], the “free polysubstituted 2-oxa-3-oxoindolizidine from hydrolysis of the glycolipid mimetic (stability to glycosidases)” value in data set [1] is listed as “No traces”.
As to `CCOP(=O)(N[C@@H]1C(O)[C@@H](O)[C@H](O)C2COC(=O)N21)OCC` (stereo partly shown) [Compound 2], the “free polysubstituted 2-oxa-3-oxoindolizidine from hydrolysis of the glycolipid mimetic (stability to glycosidases)” value in data set [1] is given as “No traces”.
